# Data from patent US11352340B2, “Pyridine and pyridimine compounds as PI3K-gamma inhibitors” (Incyte Corporation, priority 2016, dated 2022).
# Structures can show the parent of a compound that is named as a salt.
# How the values were obtained:
# [1] = biological target: PI3Kγ (p110γ) Recombinant Human Protein (Homo sapiens (Human), UniProt P48736); assay: PI3K-γ Scintillation Proximity Assay; format: biochemical; details: read-out: PI3K-gamma SPA IC50
# In short: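 Radiometric SPA: reaction at room temperature for 120 min using 2 μM ATP with [γ-33P]ATP tracer, 20 μM PIP2 substrate and 13 nM human PI3Kγ (MOPS pH 6.7, MgCl2, DTT, CHAPS; 2% DMSO). EDTA quench with WGA beads, scintillation count, and IC50 fit of percent-of-control activity.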
# [2] = biological target: PI3Kδ (p110δ/p85α) Recombinant Human Protein (Homo sapiens (Human), UniProt O00329); assay: PI3Kδ Scintillation Proximity Assay; format: biochemical; details: read-out: PI3K-delta SPA IC50
# PI3Kδ (p110δ/p85α) Recombinant Human Protein, sequence (O00329 whole entry): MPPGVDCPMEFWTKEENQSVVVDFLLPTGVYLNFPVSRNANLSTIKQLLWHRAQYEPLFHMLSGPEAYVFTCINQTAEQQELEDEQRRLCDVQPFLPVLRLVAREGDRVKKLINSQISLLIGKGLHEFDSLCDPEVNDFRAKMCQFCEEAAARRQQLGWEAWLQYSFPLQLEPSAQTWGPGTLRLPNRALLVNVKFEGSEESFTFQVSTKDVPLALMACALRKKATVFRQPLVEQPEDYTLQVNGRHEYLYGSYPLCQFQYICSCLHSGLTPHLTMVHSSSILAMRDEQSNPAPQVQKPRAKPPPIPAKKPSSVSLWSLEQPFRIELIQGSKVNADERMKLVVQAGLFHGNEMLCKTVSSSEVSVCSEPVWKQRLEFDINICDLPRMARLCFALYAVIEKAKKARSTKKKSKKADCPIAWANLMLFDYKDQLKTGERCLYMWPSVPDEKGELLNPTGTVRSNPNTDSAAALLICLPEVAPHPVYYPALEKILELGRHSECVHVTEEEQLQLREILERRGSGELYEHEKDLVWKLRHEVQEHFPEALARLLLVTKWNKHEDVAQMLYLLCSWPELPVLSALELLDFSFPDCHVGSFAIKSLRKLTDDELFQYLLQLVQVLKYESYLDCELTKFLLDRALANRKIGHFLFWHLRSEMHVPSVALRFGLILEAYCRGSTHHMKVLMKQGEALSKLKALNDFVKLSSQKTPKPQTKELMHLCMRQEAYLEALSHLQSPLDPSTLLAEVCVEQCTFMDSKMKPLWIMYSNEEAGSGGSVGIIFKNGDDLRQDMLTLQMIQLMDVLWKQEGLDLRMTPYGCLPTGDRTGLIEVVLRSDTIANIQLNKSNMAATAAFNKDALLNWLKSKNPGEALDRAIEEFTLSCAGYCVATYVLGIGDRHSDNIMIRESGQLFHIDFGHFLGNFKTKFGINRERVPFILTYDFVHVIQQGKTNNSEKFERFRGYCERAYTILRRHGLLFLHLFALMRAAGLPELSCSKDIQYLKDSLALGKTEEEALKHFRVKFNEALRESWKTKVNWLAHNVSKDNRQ
# PI3Kδ (p110δ/p85α) Recombinant Human Protein, sequence (P27986 whole entry partner): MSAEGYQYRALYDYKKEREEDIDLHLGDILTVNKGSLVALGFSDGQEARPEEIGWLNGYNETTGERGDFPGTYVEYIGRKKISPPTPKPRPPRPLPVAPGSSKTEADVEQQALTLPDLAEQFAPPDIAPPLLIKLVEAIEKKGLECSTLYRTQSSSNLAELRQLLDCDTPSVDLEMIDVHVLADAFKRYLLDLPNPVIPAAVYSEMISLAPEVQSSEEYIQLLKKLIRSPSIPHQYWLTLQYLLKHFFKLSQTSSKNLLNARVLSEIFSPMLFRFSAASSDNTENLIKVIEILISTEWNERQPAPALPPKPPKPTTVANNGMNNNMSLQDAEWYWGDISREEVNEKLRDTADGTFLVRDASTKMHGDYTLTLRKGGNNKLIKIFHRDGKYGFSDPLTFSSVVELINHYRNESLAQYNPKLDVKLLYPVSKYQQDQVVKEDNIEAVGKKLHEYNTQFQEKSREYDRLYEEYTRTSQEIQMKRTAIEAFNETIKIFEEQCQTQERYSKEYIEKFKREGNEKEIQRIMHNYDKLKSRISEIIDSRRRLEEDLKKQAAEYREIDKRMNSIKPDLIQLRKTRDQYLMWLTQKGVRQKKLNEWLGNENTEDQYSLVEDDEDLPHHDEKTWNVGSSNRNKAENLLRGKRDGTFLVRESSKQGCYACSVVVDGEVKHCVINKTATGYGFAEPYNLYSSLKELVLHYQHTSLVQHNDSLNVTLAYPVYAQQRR
# In short: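 Radiometric read-out: 33P-labelled PIP3 product captured on WGA SPA beads and counted, with IC50 fitted from percent activity relative to DMSO control. Enzyme (3.4 nM) was incubated 120 min at room temperature with 20 μM PIP2 and 2 μM ATP at pH 6.7, 2% DMSO.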
# PI3Kγ (p110γ) Recombinant Human Protein, sequence (P48736 whole entry): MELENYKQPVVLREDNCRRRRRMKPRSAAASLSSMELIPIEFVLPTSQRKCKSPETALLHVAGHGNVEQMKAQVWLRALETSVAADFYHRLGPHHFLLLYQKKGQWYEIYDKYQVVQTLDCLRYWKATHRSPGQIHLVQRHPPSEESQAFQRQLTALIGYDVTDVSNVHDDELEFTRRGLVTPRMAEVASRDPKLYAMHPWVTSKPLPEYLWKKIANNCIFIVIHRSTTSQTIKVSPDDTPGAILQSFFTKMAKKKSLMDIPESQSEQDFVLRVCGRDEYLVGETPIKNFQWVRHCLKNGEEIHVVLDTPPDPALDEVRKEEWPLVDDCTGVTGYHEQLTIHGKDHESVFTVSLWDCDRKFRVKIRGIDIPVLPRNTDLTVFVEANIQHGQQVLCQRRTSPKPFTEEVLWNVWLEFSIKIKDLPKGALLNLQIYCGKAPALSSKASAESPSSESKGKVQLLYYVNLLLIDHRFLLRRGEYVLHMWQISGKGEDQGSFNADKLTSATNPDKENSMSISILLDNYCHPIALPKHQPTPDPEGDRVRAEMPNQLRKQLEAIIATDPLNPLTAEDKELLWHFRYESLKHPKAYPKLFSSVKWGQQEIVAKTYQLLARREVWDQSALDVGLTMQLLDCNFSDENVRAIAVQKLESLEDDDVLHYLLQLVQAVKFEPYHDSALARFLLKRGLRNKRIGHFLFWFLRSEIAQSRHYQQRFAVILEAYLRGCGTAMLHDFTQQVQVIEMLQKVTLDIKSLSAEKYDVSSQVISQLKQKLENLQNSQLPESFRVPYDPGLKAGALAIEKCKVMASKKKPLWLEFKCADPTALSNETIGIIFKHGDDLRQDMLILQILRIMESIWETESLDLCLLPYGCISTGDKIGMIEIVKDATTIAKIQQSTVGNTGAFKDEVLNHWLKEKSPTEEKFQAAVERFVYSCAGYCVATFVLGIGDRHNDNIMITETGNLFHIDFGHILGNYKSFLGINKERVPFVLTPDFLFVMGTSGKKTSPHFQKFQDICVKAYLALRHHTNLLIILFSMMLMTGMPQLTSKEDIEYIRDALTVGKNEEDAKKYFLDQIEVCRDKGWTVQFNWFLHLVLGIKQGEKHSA
SMILES,IC50 [1] [nM],IC50 [2] [nM]
"Cc1nc(-c2cc(-c3cncc(C(=O)N4CCC(O)(Cc5ccccc5)CC4)c3)ccn2)[nH]c1C [Example 196, 4-Benzyl-1-{[2′-(4,5-dimethyl-1H-imidazol-2-yl)-3,4′-bipyridin-5-yl]carbonyl}piperidin-4-ol trifluoroacetate salt]",≤ 500,≤ 50
"Cc1nc(-c2cc(-c3cncc(C(=O)N4CCCN(C)CC4)c3)ccn2)[nH]c1C [Example 200, 2′-(4,5-Dimethyl-1H-imidazol-2-yl)-5-[(4-methyl-1,4-diazepan-1-yl)carbonyl]-3,4′-bipyridine]",≤ 500,≤ 500
"CC(=O)N1CC=C(c2ccnc(-c3nc(C)c(C)[nH]3)c2)CC1 [Example 217, 1(4-(2-(4,5-Dimethyl-1H-imidazol-2-yl)pyridin-4-yl)-5,6-dihydropyridin-1(2H)-yl)ethanone trifluoroacetate salt]",> 500,> 500
"CC(=O)N1CCC=C(c2ccnc(-c3nc(C)c(C)[nH]3)c2)C1 [Example 219, 1-(3-(2-(4,5-Dimethyl-1H-imidazol-2-yl)pyridin-4-yl)-5,6-dihydropyridin-1(2H)-yl)ethanone trifluoroacetate salt]",> 500,> 500
"Cc1nc(-c2cc(C3=CCCN(S(C)(=O)=O)C3)ccn2)[nH]c1C [Example 220, 2-(4,5-Dimethyl-1H-imidazol-2-yl)-4-(1-(methylsulfonyl)-1,2,5,6-tetrahydropyridin-3-yl)pyridine trifluoroacetate salt]",≤ 500,> 500
"Cc1nc(-c2cc(C3=CCCN(C(=O)c4ccccc4)C3)ccn2)[nH]c1C [Example 222, (3-(2-(4,5-Dimethyl-1H-imidazol-2-yl)pyridin-4-yl)-5,6-dihydropyridin-1(2H)-yl)(phenyl)methanone trifluoroacetate salt]",> 500,> 500
"Cc1nc(-c2cc(C3=CCCN(Cc4ccccc4)C3)ccn2)[nH]c1C [Example 223, 4-(1-Benzyl-1,2,5,6-tetrahydropyridin-3-yl)-2-(4,5-dimethyl-1H-imidazol-2-yl)pyridine trifluoroacetate salt]",> 500,> 500
"Cc1nc(-c2cc(C3=CCCN(Cc4ccc(Cl)cc4)C3)ccn2)[nH]c1C [Example 224, 4-(1-(4-Chlorobenzyl)-1,2,5,6-tetrahydropyridin-3-yl)-2-(4,5-dimethyl-1H-imidazol-2-yl)pyridine trifluoroacetate salt]",> 500,> 500
"Cc1nc(-c2cc(C3=CCCN(CC4CCOCC4)C3)ccn2)[nH]c1C [Example 225, 2-(4,5-Dimethyl-1H-imidazol-2-yl)-4-(1-((tetrahydro-2H-pyran-4-yl)methyl)-1,2,5,6-tetrahydropyridin-3-yl)pyridine trifluoroacetate salt]",> 500,> 500
"CC(=O)N1CC=C(c2ccnc(-c3nc(C)c(C)[nH]3)c2)C1 [Example 226, 1-(3-(2-(4,5-Dimethyl-1H-imidazol-2-yl)pyridin-4-yl)-2,5-dihydro-1H-pyrrol-1-yl)ethanone trifluoroacetate salt]",> 500,> 500
"Cc1nc(-c2cc(C3=CCN(S(C)(=O)=O)C3)ccn2)[nH]c1C [Example 227, 2-(4,5-Dimethyl-1H-imidazol-2-yl)-4-(1-(methylsulfonyl)-2,5-dihydro-1H-pyrrol-3-yl)pyridine trifluoroacetate salt]",> 500,> 500
"Cc1nc(-c2cc(C3=CCN(Cc4ccccc4)C3)ccn2)[nH]c1C [Example 228, 4-(1-Benzyl-2,5-dihydro-1H-pyrrol-3-yl)-2-(4,5-dimethyl-1H-imidazol-2-yl)pyridine trifluoroacetate salt]",> 500,> 500
"Cc1nc(-c2cc(C3=CCN(Cc4ccc(Cl)cc4)C3)ccn2)[nH]c1C [Example 229, 4-(1-(4-Chlorobenzyl)-2,5-dihydro-1H-pyrrol-3-yl)-2-(4,5-dimethyl-1H-imidazol-2-yl)pyridine trifluoroacetate salt]",> 500,> 500
"Cc1nc(-c2cc(C3=CCN(CC4CCOCC4)C3)ccn2)[nH]c1C [Example 230, 2-(4,5-Dimethyl-1H-imidazol-2-yl)-4-(1-((tetrahydro-2H-pyran-4-yl)methyl)-2,5-dihydro-1H-pyrrol-3-yl)pyridine trifluoroacetate salt]",> 500,> 500
"Cc1nc(-c2cc(-c3cncc(C4=CCN(C(=O)OC(C)(C)C)C4)c3)ccn2)[nH]c1C [Example 235, tert-Butyl 3-[2′-(4,5-dimethyl-1H-imidazol-2-yl)-3,4′-bipyridin-5-yl]-2,5-dihydro-1H-pyrrole-1-carboxylate]",≤ 500,> 500
"Cc1nc(-c2cc(-c3cncc(C4=CCNC4)c3)ccn2)[nH]c1C [Example 236, 5-(2,5-Dihydro-1H-pyrrol-3-yl)-2′-(4,5-dimethyl-1H-imidazol-2-yl)-3,4′-bipyridine]",> 500,> 500
"CC(=O)N1CC=C(c2cncc(-c3ccnc(-c4nc(C)c(C)[nH]4)c3)c2)C1 [Example 238, 1-(3-(2′-(4,5-Dimethyl-1H-imidazol-2-yl)-3,4′-bipyridin-5-yl)-2,5-dihydro-1H-pyrrol-1-yl)ethanone]",> 500,≤ 500
"COC(=O)N1CC=C(c2cncc(-c3ccnc(-c4nc(C)c(C)[nH]4)c3)c2)C1 [Example 239, Methyl 3-(2′-(4,5-dimethyl-1H-imidazol-2-y1)-3,4′-bipyridin-5-yl)-2,5-dihydro-1H-pyrrole-1-carboxylate]",≤ 500,≤ 500
"Cc1[nH]c(-c2cc(-c3cncc(S(C)(=O)=O)c3)ccn2)nc1C(=O)N1CC[C@H](O)C1 [Example 246, (3S)-1-({5-Methyl-2-[5-(methylsulfonyl)-3,4′-bipyridin-2′-yl]-1H-imidazol-4-yl}carbonyl)pyrrolidin-3-ol]",≤ 500,≤ 500
"Cc1[nH]c(-c2cc(-c3cncc(S(C)(=O)=O)c3)ccn2)nc1C(=O)N(C)C [Example 251, N,N,5-Trimethyl-2-[5-(methylsulfonyl)-3,4′-bipyridin-2′-yl]-1H-imidazole-4-carboxamide trifluoroacetate salt]",≤ 500,≤ 100
"Cc1[nH]c(-c2cc(-c3cncc(N4CCOCC4)c3)ccn2)nc1C(=O)O [Example 257, 5-Methyl-2-(5-morpholin-4-yl-3,4′-bipyridin-2′-yl)-1H-imidazole-4-carboxylic Acid Trifluoroacetate Salt]",≤ 500,> 500

# The remaining lines, values ahead:
IC50 [1] [nM],IC50 [2] [nM],SMILES
≤ 100,≤ 100,"Cc1nc(-c2cc(-c3cncc(C(=O)N4CC5(CCN(C)C5=O)C4)c3)ccn2)[nH]c1C [Example 171, 2-(2′-(4,5-Dimethyl-1H-imidazol-2-yl)-3,4′-bipyridine-5-carbonyl)-6-methyl-2,6-diazaspiro[3.4]octan-5-one trifluoroacetate salt]"
≤ 100,≤ 500,"Cc1nc(-c2cc(-c3cncc(C(=O)N[C@@H]4CCOC4)c3)ccn2)[nH]c1C [Example 176, 2′-(4,5-Dimethyl-1H-imidazol-2-yl)-N-[(3R)-tetrahydrofuran-3-yl]-3,4′-bipyridine-5-carboxamide trifluoroacetate salt]"
≤ 100,≤ 100,"Cc1nc(-c2cc(-c3cncc(C(=O)N4CCC(O)CC4)c3)ccn2)[nH]c1C [Example 177, 1-{[2′-(4,5-Dimethyl-1H-imidazol-2-yl)-3,4′-bipyridin-5-yl]carbonyl}piperidin-4-ol]"
≤ 100,≤ 50,"Cc1nc(-c2cc(-c3cncc(C(=O)N4CCC(Cc5ccccc5)CC4)c3)ccn2)[nH]c1C [Example 189, 5-[(4-Benzylpiperidin-1-yl)carbonyl]-2′-(4,5-dimethyl-1H-imidazol-2-yl)-3,4′-bipyridine trifluoroacetate salt]"
≤ 500,≤ 500,"Cc1nc(-c2cc(-c3cncc(C(=O)N[C@@H](C)c4ccccc4)c3)ccn2)[nH]c1C [Example 195, 2′-(4,5-Dimethyl-1H-imidazol-2-yl)-N-[(1S)-1-phenylethyl]-3,4′-bipyridine-5-carboxamide trifluoroacetate salt]"
≤ 100,≤ 50,"COCCN(C)C(=O)c1cncc(-c2ccnc(-c3nc(C)c(C)[nH]3)c2)c1 [Example 204, 2′-(4,5-Dimethyl-1H-imidazol-2-yl)-N-(2-methoxyethyl)-N-methyl-3,4′-bipyridine-5-carboxamide trifluoroacetate salt]"
≤ 100,≤ 100,"Cc1nc(-c2cc(-c3cncc(C(=O)N(C)CCCO)c3)ccn2)[nH]c1C [Example 209, 2′-(4,5-Dimethyl-1H-imidazol-2-yl)-N-(3-hydroxypropyl)-N-methyl-3,4′-bipyridine-5-carboxamide]"
≤ 100,≤ 500,"CCCN(C)C(=O)c1cncc(-c2ccnc(-c3nc(C)c(C)[nH]3)c2)c1 [Example 210, 2′-(4,5-Dimethyl-1H-imidazol-2-yl)-N-methyl-N-propyl-3,4′-bipyridine-5-carboxamide]"
≤ 100,≤ 100,"Cc1nc(-c2cc(-c3cncc(Cl)c3)ccn2)[nH]c1C [Example 234, 5-Chloro-2′-(4,5-dimethyl-1H-imidazol-2-yl)-3,4′-bipyridine]"
